Source: US20060074101A1, “Method of treating post operative nausea and vomiting” (Helsinn Healthcare SA, priority 2003, published 2006)
Where a name gives a salt, the structure may show the parent alone. Read-outs that look alike come from different tables or passages of the source.

Experiments:
[1] = in vivo, cited from earlier work
PONV = conditions: Scuderi et al. (2002); cited from earlier work
[2] = test system: postoperative vomiting and nausea (PONV); assay: Oral administration of palonosetron for prophylaxis of PONV (elective laparoscopic surgery patients); assay type: in vivo, human; conditions: for % no EE / % with CR: 4 hours after recovery; for % no EE / % with CR / % no EE (no emetic episodes) / % with CC (complete control) / % with CR (complete response): evaluable patients; for % no EE (no emetic episodes) / % with CC (complete control) / % with CR (complete response): 24 hours after recovery; for Nausea Mean Score / No Nausea (patients) / Severe Nausea (patients): during 24 hours after recovery; for patients free from emetic episodes: first 4 hours of recovery
Method: A study was performed to test the efficacy, safety, and pharmacokinetics of five doses of orally administered palonosetron for the prophylaxis of postoperative vomiting and nausea. Three hundred fifty-one patients, 308 women and 43 men, 19-75 years of age, scheduled for elective laparoscopic surgical procedures and having an ASA physical status rating of I and II were enrolled in this study. All patients received balanced general anesthesia, including […] plus an opiate. Doses of palonosetron were calculated based on thee patient's body weight at the screening visit, rounded to the nearest kilogram. Each dose was diluted to a total volume of 25 mL by adding sterile water to the dosing cup. The dosing cup was rinsed with 25 mL of sterile water and the patient also swallowed this 25 mL. Study medication was administered 2 hours prior to scheduled induction of anesthesia for surgeries requiring nasogastric suction and 1 hour prior to scheduled induction of anesthesia for all other laparoscopic surgical procedures.

[3] = test system: postoperative vomiting and nausea (PONV); assay: Prevention of PONV using a single intravenous dose of palonosetron (hysterectomy patients); assay type: in vivo, human; conditions: for patients who had received rescue therapy: by 24 hours; for Time to Failure (hr) (median): emesis or rescue medication, whichever first; for patients who experienced one or more emetic episodes: at 12 hours; for patients who had experienced an emetic episode: at 24 hours; for patients who experienced an emetic episode: two hours postrecovery; for Nausea Mean Score / No Nausea (patients) / Severe Nausea (patients): during 24 hours after recovery
Method: A study was conducted to test the efficacy and safety of five doses of intravenously administered palonosetron for the prophylaxis of postoperative vomiting and nausea. A total of 381 women, 24-80 years of age, scheduled for abdominal or vaginal hysterectomy and having ASA physical status rating of I or II were enrolled in this study. All patients received balanced general anesthesia, including N2O plus an opiate. Study medication, palonosetron, was administered over 30 seconds through a peripheral IV line at skin closure at the conclusion of the surgical procedure.

[4] = Stability of palonosetron in solution; assay type: physicochemical; conditions: dependence on concentration
[5] = 0.1 μg/kg IV, 24 hours after recovery, evaluable patients
[6] = 0.3 μg/kg IV, 4 hours after recovery
[7] = 0.3 μg/kg IV, 24 hours after recovery, evaluable patients
[8] = 1 μg/kg IV, 4 hours after recovery
[9] = 1.0 μg/kg IV, 24 hours after recovery, evaluable patients
[10] = 3.0 μg/kg IV, 24 hours after recovery, evaluable patients
[11] = 30 μg/kg IV, 4 hours after recovery
[12] = 30 μg/kg IV, 24 hours after recovery, evaluable patients

CN1C2CCCC1CC(NC(=O)c1nn(C)c3ccccc13)C2 (stereo not shown) [Kytril, granisetron hydrochloride]
plasma half-life [1]: 1.77 to 17.73 h

O=C(O[C@@H]1C[C@@H]2C[C@H]3C[C@H](C1)N2CC3=O)c1c[nH]c2ccccc12 [dolasetron]
serum half life [1]: approximately 7.5 hours

Cc1nccn1CC1CCc2c(c3ccccc3n2C)C1=O (stereo not shown) [ondansetron]
serum half life [1]: ~5.5 h
serum half life ([1]; listed as Zofran): 5 to 6 h
patients requiring additional therapy after treatment (PONV): 38-50%

Cl.O=C1c2cccc3c2[C@H](CCC3)CN1[C@@H]1CN2CCC1CC2 [palonosetron, (3aS)-2,3,3a,4,5,6-Hexahydro-2-[(S)-1-Azabicyclo[2.2.2]oct-3-yl]2,3,3a,4,5,6-hexahydro-1-oxo-1Hbenz[de]isoquinoline]
% no EE ([2]; 0.1 μg/kg oral): 73%
% with CR ([2]; 0.1 μg/kg oral): 60%
nausea, position of treatment group relative to other groups ([2]; 0.3 μg/kg oral, 24-hour period following recovery): intermediate to the placebo group and the other palonosetron treatment groups
% no EE ([2]; 0.3 μg/kg oral): 72%
% with CR ([2]; 0.3 μg/kg oral): 61%
% no EE (no emetic episodes) ([2]; 0.3 μg/kg oral): 50%
% with CC (complete control) ([2]; 0.3 μg/kg oral): 37%
% with CR (complete response) ([2]; 0.3 μg/kg oral): 37%
Nausea Mean Score ([2]; 0.3 μg/kg oral): 0.83
No Nausea (patients) ([2]; 0.3 μg/kg oral): 44.8%
Severe Nausea (patients) ([2]; 0.3 μg/kg oral): 3.4%
% no EE ([2]; 1 μg/kg oral): 81%
% with CR ([2]; 1 μg/kg oral): 70%
% no EE (no emetic episodes) ([2]; 1 μg/kg oral): 67%
% with CC (complete control) ([2]; 1 μg/kg oral): 58%
% with CR (complete response) ([2]; 1 μg/kg oral): 58%
Nausea Mean Score ([2]; 1 μg/kg oral): 0.64
No Nausea (patients) ([2]; 1 μg/kg oral): 52.8%
Severe Nausea (patients) ([2]; 1 μg/kg oral): 3.8%
patients free from emetic episodes ([2]; 1.0 μg/kg oral): 72%
% no EE ([2]; 3 μg/kg oral): 82%
% with CR ([2]; 3 μg/kg oral): 76%
% no EE (no emetic episodes) ([2]; 3 μg/kg oral): 63%
% with CC (complete control) ([2]; 3 μg/kg oral): 52%
% with CR (complete response) ([2]; 3 μg/kg oral): 52%
Nausea Mean Score ([2]; 3 μg/kg oral): 0.65
No Nausea (patients) ([2]; 3 μg/kg oral): 55.8%
Severe Nausea (patients) ([2]; 3 μg/kg oral): 7.7%
patients free from emetic episodes ([2]; 3 μg/kg oral): 81%
% no EE (no emetic episodes) ([2]; 10 μg/kg oral): 71%
% with CC (complete control) ([2]; 10 μg/kg oral): 57%
% with CR (complete response) ([2]; 10 μg/kg oral): 59%
Nausea Mean Score ([2]; 10 μg/kg oral): 0.71
No Nausea (patients) ([2]; 10 μg/kg oral): 51.1%
Severe Nausea (patients) ([2]; 10 μg/kg oral): 2.2%
patients free from emetic episodes ([2]; 10 μg/kg oral): 82%
% no EE ([2]; 30 μg/kg oral): 69%
% with CR ([2]; 30 μg/kg oral): 63%
% no EE (no emetic episodes) ([2]; 30 μg/kg oral): 65%
% with CC (complete control) ([2]; 30 μg/kg oral): 51%
% with CR (complete response) ([2]; 30 μg/kg oral): 53%
Nausea Mean Score ([2]; 30 μg/kg oral): 0.79
No Nausea (patients) ([2]; 30 μg/kg oral): 44.8%
Severe Nausea (patients) ([2]; 30 μg/kg oral): 5.2%
nausea reported versus placebo ([2]; 1, 3, 10, and 30 μg/kg oral, 24-hour period following recovery): statistically significantly less nausea
dose at which clinical response reached a plateau ([2]; orally administered): 1 µg/kg
Duration of Effect: Emetic Episode (25th Percentile) ([3]; 0.1 μg/kg IV): 2.2 h
Duration of Effect: Emetic Episode, second line of values (percentile not given) ([3]; 0.1 μg/kg IV): >24 h
Duration of Effect: Rescue (50th percentile) ([3]; 0.1 μg/kg IV): 8.5 h
% with CR ([3]; 0.1 μg/kg IV, 4 hours after recovery): 57%
% no EE [3, 5]: 55%
% with CC (complete control) [3, 5]: 34%
% with CR (complete response) [3, 5]: 34%
patients who had received rescue therapy ([3]; 0.1 μg/kg IV): 59.6%
Time to Failure (hr) (median) ([3]; 0.1 μg/kg IV): 6.0 h
Duration of Effect: Emetic Episode (25th Percentile) ([3]; 0.3 μg/kg IV): 8.4 h
Duration of Effect: Emetic Episode, second line of values (percentile not given) ([3]; 0.3 μg/kg IV): >24 h
Duration of Effect: Rescue (50th percentile) ([3]; 0.3 μg/kg IV): 9.9 h
% no EE [3, 6]: 90%
% with CR [3, 6]: 72%
% no EE [3, 7]: 60%
% with CC (complete control) [3, 7]: 33%
% with CR (complete response) [3, 7]: 34%
patients who experienced one or more emetic episodes ([3]; 0.3 μg/kg IV): 29.9%
patients who had experienced an emetic episode ([3]; 0.3 μg/kg IV): 40.3%
patients who had received rescue therapy ([3]; 0.3 μg/kg IV): 59.7%
Time to Failure (hr) (median) ([3]; 0.3 μg/kg IV): 9.6 h
patients who experienced an emetic episode ([3]; 0.3 μg/kg IV): 10.4%
Duration of Effect: Emetic Episode (25th Percentile) ([3]; 1 μg/kg IV): 21.8 h
Duration of Effect: Emetic Episode, second line of values (percentile not given) ([3]; 1 μg/kg IV): >24 h
Duration of Effect: Rescue (50th percentile) ([3]; 1 μg/kg IV): 21.3 h
% no EE [3, 8]: 92%
% with CR [3, 8]: 69%
% no EE [3, 9]: 73%
% with CC (complete control) [3, 9]: 44%
% with CR (complete response) [3, 9]: 44%
patients who experienced one or more emetic episodes ([3]; 1 μg/kg IV): 14.5%
patients who had experienced an emetic episode ([3]; 1 μg/kg IV): 27.4%
patients who had received rescue therapy ([3]; 1 μg/kg IV): 51.6%
Nausea Mean Score ([3]; 1 μg/kg IV): 0.82
No Nausea (patients) ([3]; 1 μg/kg IV): 36.1%
Severe Nausea (patients) ([3]; 1 μg/kg IV): 3.3%
Time to Failure (hr) (median) ([3]; 1.0 μg/kg IV): 19.5 h
patients who experienced an emetic episode ([3]; 1 μg/kg IV): 6.5%
nausea reported versus placebo ([3]; 1 μg/kg, 3 μg/kg, and 30 μg/kg IV, 24-hour period following recovery): statistically significantly less nausea
Duration of Effect: Emetic Episode (25th Percentile) ([3]; 3 μg/kg IV): 4.9 h
Duration of Effect: Emetic Episode, second line of values (percentile not given) ([3]; 3 μg/kg IV): >24 h
Duration of Effect: Rescue (50th percentile) ([3]; 3 μg/kg IV): 8.0 h
% with CR ([3]; 3 μg/kg IV, 4 hours after recovery): 66%
% no EE [3, 10]: 61%
% with CC (complete control) [3, 10]: 30%
% with CR (complete response) [3, 10]: 30%
Nausea Mean Score ([3]; 3 μg/kg IV): 0.92
No Nausea (patients) ([3]; 3 μg/kg IV): 34.8%
Severe Nausea (patients) ([3]; 3 μg/kg IV): 3.0%
Time to Failure (hr) (median) ([3]; 3.0 μg/kg IV): 7.3 h
Duration of Effect: Emetic Episode (25th Percentile) ([3]; 30 μg/kg IV): >24 h
Duration of Effect: Emetic Episode, second line of values (percentile not given) ([3]; 30 μg/kg IV): >24 h
Duration of Effect: Rescue (50th percentile) ([3]; 30 μg/kg IV): 23.2 h
% no EE [3, 11]: 94%
% with CR [3, 11]: 66%
% no EE [3, 12]: 76%
% with CC (complete control) [3, 12]: 45%
% with CR (complete response) [3, 12]: 45%
patients who experienced one or more emetic episodes ([3]; 30 μg/kg IV): 13.4%
patients who had experienced an emetic episode ([3]; 30 μg/kg IV): 23.9%
patients who had received rescue therapy ([3]; 30 μg/kg IV): 50.7%
Nausea Mean Score ([3]; 30 μg/kg IV): 0.66
No Nausea (patients) ([3]; 30 μg/kg IV): 47.8%
Time to Failure (hr) (median) ([3]; 30 μg/kg IV): 15.0 h
patients who experienced an emetic episode ([3]; 30 μg/kg IV): 4.5%
patients free from emetic episodes ([3]; 0.3-, 1-, and 30-μg/kg IV groups (range), first 4 hours of recovery): 90-94%
dose at which the clinical response substantially plateaus ([3]; administered intravenously or orally): about 1 microgram/kilogram of body weight
patients who received rescue medication ([3]; palonosetron-treated patients IV (range over dose groups), at 8 hours): 35.5-50.7%
patients who received rescue therapy ([3]; palonosetron-treated patients IV (range over dose groups), within the first 2 hours): 21-31%
stability in solution [4]: stability of palonosetron increases in solution as its concentration decreases
